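Growth conditions: 96-well plates. Treatment: test compound, 48 hours, 5 concentrations. Analysis: linear interpolation between bracketing concentrations; unreached endpoints set to highest concentration. GI50: concentration for 50% inhibition of growth.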 Active and inactive are the calls of the source. Rule as the data show it: active = GI50 up to about 1.1 µM and inactive = higher. Residues, ends and D or L forms follow the SMILES beside them.
Legend:
Assay in all cases: NCI anticancer screen, dose series, 48 h
RPMI-8226 = tested on: RPMI-8226
A498 = tested on: A498
HT-29 = tested on: HT-29
HOP-92 = tested on: HOP-92
EKVX = tested on: EKVX
MDA-MB-231 = tested on: MDA-MB-231
UACC-257 = tested on: UACC-257
NCI/ADR-RES = tested on: NCI/ADR-RES
HOP-62 = tested on: HOP-62
COLO 205 = tested on: COLO 205
SNB-75 = tested on: SNB-75
KM12 = tested on: KM12
NCI-H522 = tested on: NCI-H522
LOX IMVI = tested on: LOX IMVI
MDA-N = tested on: MDA-N
Hs-578T = tested on: Hs-578T
IGROV-1 = tested on: IGROV-1
U-251 = tested on: U-251
K562 = tested on: K562
CCRF-CEM = tested on: CCRF-CEM

SMILES | GI50 (RPMI-8226) | GI50 (A498) | GI50 (HT-29) | GI50 (HOP-92) | GI50 (EKVX) | GI50 (MDA-MB-231) | GI50 (UACC-257) | GI50 (NCI/ADR-RES) | GI50 (HOP-62) | GI50 (COLO 205) | GI50 (SNB-75) | GI50 (KM12) | GI50 (NCI-H522) | GI50 (LOX IMVI) | GI50 (MDA-N) | GI50 (Hs-578T) | GI50 (IGROV-1) | GI50 (U-251) | GI50 (K562) | GI50 (CCRF-CEM)
O=c1oc2cc(O)ccc2c(O)c1C(c1ccccc1F)c1c(O)c2ccc(O)cc2oc1=O | 29.6 µM (inactive) | > 100 µM (inactive) | > 100 µM (inactive) | 65.2 µM (inactive) | > 100 µM (inactive) | 95.7 µM (inactive) | > 100 µM (inactive) | > 100 µM (inactive) | > 100 µM (inactive) | > 100 µM (inactive) | > 100 µM (inactive) | 78.3 µM (inactive) | > 100 µM (inactive) | 46 µM (inactive) | 61.2 µM (inactive) | 68.9 µM (inactive) | > 100 µM (inactive) | 42.3 µM (inactive) | 25.4 µM (inactive) | –
COc1cc([C@@H]2c3cc4c(cc3[C@@H](Nc3ccc(Cl)cc3C(=O)c3ccccc3)[C@H]3COC(=O)[C@H]23)OCO4)cc(OC)c1OC | 0.467 µM (active) | 0.195 µM (active) | 0.307 µM (active) | – | > 100 µM (inactive) | 0.586 µM (active) | 0.998 µM (active) | 0.425 µM (active) | 0.64 µM (active) | 0.416 µM (active) | – | 0.258 µM (active) | 0.211 µM (active) | 0.303 µM (active) | 0.307 µM (active) | 0.287 µM (active) | 0.417 µM (active) | 0.241 µM (active) | 0.358 µM (active) | 0.37 µM (active)
Cc1nc(O)nc2nc3cc(Cl)cc(Cl)c3c(NC(C)(CO)CO)c12 | – | 13.6 µM (inactive) | > 100 µM (inactive) | 16.4 µM (inactive) | > 100 µM (inactive) | 14.7 µM (inactive) | > 100 µM (inactive) | > 100 µM (inactive) | 23.5 µM (inactive) | > 100 µM (inactive) | 11.4 µM (inactive) | > 100 µM (inactive) | > 100 µM (inactive) | > 100 µM (inactive) | > 100 µM (inactive) | 31.6 µM (inactive) | 35.9 µM (inactive) | 14.4 µM (inactive) | > 100 µM (inactive) | > 100 µM (inactive)
CCC(C)C(NC(=O)C1CCCN1)C(=O)NC(C(=O)NCC(=O)NC(CC(N)=O)C(=O)NC(CC(C)C)C(=O)NC(CC(C)C)C(=O)NC(CCCCN)C(N)=O)C(C)C (stereo unspecified) (H-PIVGNLLK-NH2; configuration not given here) | > 75 µM (inactive) | > 75 µM (inactive) | > 75 µM (inactive) | > 75 µM (inactive) | > 75 µM (inactive) | > 75 µM (inactive) | > 75 µM (inactive) | > 75 µM (inactive) | > 75 µM (inactive) | > 75 µM (inactive) | – | > 75 µM (inactive) | > 75 µM (inactive) | > 75 µM (inactive) | > 75 µM (inactive) | > 75 µM (inactive) | > 75 µM (inactive) | > 75 µM (inactive) | > 75 µM (inactive) | > 75 µM (inactive)
O=C1C[C@@]23CCC4(CC2=CCC[C@H]3O1)OCCO4 | > 100 µM (inactive) | > 100 µM (inactive) | > 100 µM (inactive) | > 100 µM (inactive) | > 100 µM (inactive) | > 100 µM (inactive) | > 100 µM (inactive) | > 100 µM (inactive) | > 100 µM (inactive) | > 100 µM (inactive) | – | > 100 µM (inactive) | > 100 µM (inactive) | > 100 µM (inactive) | > 100 µM (inactive) | > 100 µM (inactive) | > 100 µM (inactive) | > 100 µM (inactive) | > 100 µM (inactive) | –
CCOC1OC(COC(=O)C(C)(C)C)C(O)CC1n1cc(C)c(=O)[nH]c1=O (stereo unspecified) | > 100 µM (inactive) | > 100 µM (inactive) | > 100 µM (inactive) | > 100 µM (inactive) | > 100 µM (inactive) | > 100 µM (inactive) | > 100 µM (inactive) | > 100 µM (inactive) | – | > 100 µM (inactive) | > 100 µM (inactive) | > 100 µM (inactive) | > 100 µM (inactive) | > 100 µM (inactive) | > 100 µM (inactive) | > 100 µM (inactive) | > 100 µM (inactive) | > 100 µM (inactive) | > 100 µM (inactive) | > 100 µM (inactive)
Cc1nc2c(=O)n3c4c(cccc4c2o1)CCC3 | > 100 µM (inactive) | > 100 µM (inactive) | 76 µM (inactive) | > 100 µM (inactive) | 76.6 µM (inactive) | > 100 µM (inactive) | > 100 µM (inactive) | > 100 µM (inactive) | > 100 µM (inactive) | > 100 µM (inactive) | > 100 µM (inactive) | > 100 µM (inactive) | – | > 100 µM (inactive) | > 100 µM (inactive) | > 100 µM (inactive) | 76.6 µM (inactive) | 96.8 µM (inactive) | 72.8 µM (inactive) | > 100 µM (inactive)
